From PMC11790914, “Chemogenomics for steroid hormone receptors (NR3)” (Communications Chemistry, 2025)
Values joined by “and” are separate entries in the source; they are usually repeats but may differ in a detail not shown here. Equal values may be shown once.

Assays:
HEK293T cells [1] = experiment: Cytotoxicity: growth-rate (change in confluence over 24 h); settings: 1 µM, normalized to 0.1% DMSO control, single replicates (n=1...)
BRPF1 = target: T1, BRPF1 (Homo sapiens, UniProt P55201); experiment: Liability panel screening by DSF: BRPF1; type: binding; settings: DSF, 20 µM, n=2; read-out: Mean ΔTM BRPF1
T1 construct: This panel comprised ten highly ligandable kinases and bromodomains; made in house
T1 sequence (P55201 628-732 limits assumed): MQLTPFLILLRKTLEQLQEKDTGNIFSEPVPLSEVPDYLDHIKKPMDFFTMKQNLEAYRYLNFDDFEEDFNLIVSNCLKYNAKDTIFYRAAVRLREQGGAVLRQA
In short: (§1)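 ∆Tm in K was taken from Boltzmann-fitted unfolding inflection points, run in duplicate with a temperature ramp of 3 °C per minute up to 85 °C. Each recombinant protein (2 µM) was in HEPES 10 mM pH 7.5 and NaCl 500 mM, with SYPRO Orange dye at 1:1000.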

MAPK1 = target: T2, MAPK1 (Homo sapiens, UniProt P28482); experiment: Liability panel screening by DSF: MAPK1; type: binding; settings: DSF, 20 µM, n=2; read-out: Mean ΔTM MAPK1
T2 construct: made in house
In short: as §1

NR3C1 (GR) = settings: (lit.); ref Supplementary Table 1; read-out: Potency [nM] EC50, NR3C1 (GR); cited from earlier work
FGFR3 = target: T3, FGFR3 (Homo sapiens, UniProt P22607); experiment: Liability panel screening by DSF: FGFR3; type: binding; settings: DSF, 20 µM, n=2; read-out: Mean ΔTM FGFR3
T3 construct: made in house
In short: as §1

AURKA = target: T4, AURKA (Homo sapiens, UniProt O14965); experiment: Liability panel screening by DSF: AURKA; type: binding; settings: DSF, 20 µM, n=2; read-out: Mean ΔTM AURKA
T4 construct: made in house
T4 sequence (O14965 1-403): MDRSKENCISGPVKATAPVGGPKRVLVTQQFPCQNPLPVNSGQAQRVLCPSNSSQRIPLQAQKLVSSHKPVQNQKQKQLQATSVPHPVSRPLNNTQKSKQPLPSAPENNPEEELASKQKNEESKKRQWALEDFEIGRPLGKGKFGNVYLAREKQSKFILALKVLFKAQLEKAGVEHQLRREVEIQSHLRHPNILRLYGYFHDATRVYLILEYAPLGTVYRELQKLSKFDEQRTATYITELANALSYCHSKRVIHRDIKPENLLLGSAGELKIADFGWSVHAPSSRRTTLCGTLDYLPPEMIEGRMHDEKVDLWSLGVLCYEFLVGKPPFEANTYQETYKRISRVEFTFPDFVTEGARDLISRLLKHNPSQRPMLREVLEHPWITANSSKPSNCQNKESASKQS
In short: as §1

CSNK1D = target: T5, CSNK1D (Homo sapiens, UniProt P48730); experiment: Liability panel screening by DSF: CSNK1D; type: binding; settings: DSF, 20 µM, n=2; read-out: Mean ΔTM CSNK1D
T5 construct: made in house
In short: as §1

ABL1 = target: T6, ABL1 (Homo sapiens, UniProt P00519); experiment: Liability panel screening by DSF: ABL1; type: binding; settings: DSF, 20 µM, n=2; read-out: Mean ΔTM ABL1
T6 construct: made in house
In short: as §1

CDK2 = target: T7, CDK2 (Homo sapiens, UniProt P24941); experiment: Liability panel screening by DSF: CDK2; type: binding; settings: DSF, 20 µM, n=2; read-out: Mean ΔTM CDK2
T7 construct: made in house
In short: as §1

GSK3B = target: T8, GSK3B (Homo sapiens, UniProt P49841); experiment: Liability panel screening by DSF: GSK3B; type: binding; settings: DSF, 20 µM, n=2; read-out: Mean ΔTM GSK3B
T8 construct: made in house

[2] = other targets with annotated bioactivities at ≤10 µM in previously published dataset; cited from earlier work
HEK293T cells [3] = experiment: Cytotoxicity: metabolic activity (WST-8 / CCK-8 assay); settings: 1 µM, single replicates
TRIM24 = target: T9, TRIM24 (Homo sapiens, UniProt O15164); experiment: Liability panel screening by DSF: TRIM24; type: binding; settings: DSF, 20 µM, n=2; read-out: Mean ΔTM TRIM24
T9 construct: This panel comprised ten highly ligandable kinases and bromodomains; made in house
T9 sequence (O15164 899-1004 limits assumed): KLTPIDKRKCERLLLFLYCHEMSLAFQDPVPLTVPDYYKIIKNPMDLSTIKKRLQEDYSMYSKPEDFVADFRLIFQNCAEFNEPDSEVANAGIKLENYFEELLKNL
In short: as §1

BRD4 = target: T10, BRD4 (Homo sapiens, UniProt O60885); experiment: Liability panel screening by DSF: BRD4; type: binding; settings: DSF, 20 µM, n=2; read-out: Mean ΔTM BRD4
T10 construct: This panel comprised ten highly ligandable kinases and bromodomains; made in house
In short: as §1

HEK293T cells [4] = experiment: Cytotoxicity: apoptosis induction (caspase-3/7 DEVD fluorogenic DNA dye); settings: 1 µM, single replicates
Description: Cells were incubated with the test compounds at the indicated concentrations solubilized with 0.1% DMSO for 24 h. Growth-rate was determined based on the change in confluence over 24 h normalized to the change in confluence of cells treated with the 0.1% DMSO control (n = 10). Metabolic activity was determined with a water-soluble tetrazolium-8 (WST-8) assay (n = 8) after 24 h treatment. Apoptotic cells were detected with a fluorogenic DNA dye coupled to the caspase-3/7 recognition sequence (DEVD) after 24 h treatment and the apoptotic cell count was normalized to 0.1% DMSO treated cells (n = 6).
HEK293T cells (German Collection of Microorganisms and Cell Culture GmbH, DSMZ; #ACC305) were cultured in DMEM high glucose, supplemented with 10% fetal calf serum (FCS), sodium pyruvate (1 mM), penicillin (100 µ/mL) and streptomycin (100 µg/mL) at 37 °C and 5% (v/v) CO2, and seeded in pre-coated (10 µg/mL collagen G solution (Merck KgaA; #L7213) for 30 min at 37 °C) 96-well plates (2 × 10^5 cells per well). After 24 h, the cells were treated with the respective NR3 CG compound candidate at the recommended concentration, bexarotene (100 µM) or doxorubicin (30 µM) as positive controls in DMEM high glucose supplemented with 0.1% FCS, penicillin (100 µ/mL), streptomycin (100 µg/mL) and 0.1% DMSO, or 0.1% DMSO alone as an untreated control. Each sample was prepared in at least four biologically independent replicates. […] Thereafter, the medium was aspirated and the cells were incubated for 3 h with 90 µL DMEM high glucose supplemented with 0.2% FCS, penicillin (100 µ/mL) and streptomycin (100 µg/mL) and additionally containing 10 µL Cell Counting Kit 8 solution (CCK-8; MedChemExpress, Monmouth Junction, New York, USA; #HY-K0301), and absorbance was measured at 1 h, 2 h and 3 h of incubation at 450 nm on a Tecan Spark Cyto to assess metabolic activity of the cells. Before drug administration, after the first medium exchange, 24 h after drug administration, and after fluorescence imaging cell confluence was assessed using the Tecan Spark Cyto, to account for changes in cell confluence due to drug administration and cell handling. Compound effects on cell confluence, apoptosis, metabolic activity and necrosis were normalized to the vehicle control of each biological replicate individually.

HEK293T cells [5] = experiment: Cytotoxicity: necrosis induction (red fluorescent dye for permeable plasma membranes); type: cell-based; settings: 1 µM, 24 h, necrotic cell count normalized to 0.1% DMSO, single replicates;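 further: compounds applied in DMEM high glucose with 0.1% FCS and 0.1% DMSO, necrotic HEK293T cells counted by red staining of cells whose plasma membranes had become permeable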
Description: Cells were incubated with the test compounds at the indicated concentrations solubilized with 0.1% DMSO for 24 h. […] Necrotic cells were detected with a red fluorescent dye that labels cells with permeable plasma membranes after 24 h treatment and the necrotic cell count was normalized to 0.1% DMSO treated cells (n = 4). e NR family selectivity profiling of NR3 CG compound candidates in uniform Gal4-hybrid reporter gene assays for selected NR representing the NR1, NR2, NR4 and NR5 families.
HEK293T cells (German Collection of Microorganisms and Cell Culture GmbH, DSMZ; #ACC305) were cultured in DMEM high glucose, supplemented with 10% fetal calf serum (FCS), sodium pyruvate (1 mM), penicillin (100 µ/mL) and streptomycin (100 µg/mL) at 37 °C and 5% (v/v) CO2, and seeded in pre-coated (10 µg/mL collagen G solution (Merck KgaA; #L7213) for 30 min at 37 °C) 96-well plates (2 × 10^5 cells per well). After 24 h, the cells were treated with the respective NR3 CG compound candidate at the recommended concentration, bexarotene (100 µM) or doxorubicin (30 µM) as positive controls in DMEM high glucose supplemented with 0.1% FCS, penicillin (100 µ/mL), streptomycin (100 µg/mL) and 0.1% DMSO, or 0.1% DMSO alone as an untreated control. Each sample was prepared in at least four biologically independent replicates. […] Before drug administration, after the first medium exchange, 24 h after drug administration, and after fluorescence imaging cell confluence was assessed using the Tecan Spark Cyto, to account for changes in cell confluence due to drug administration and cell handling. Compound effects on cell confluence, apoptosis, metabolic activity and necrosis were normalized to the vehicle control of each biological replicate individually.

[6] = test system: ATF6 activity in Hela ATF6 reporter cells; experiment: Endoplasmic reticulum stress assay (ATF6 Renilla luciferase reporter, tunicamycin); type: cell-based; settings: Homo sapiens, HeLa, 1 µM, single replicates n=1 to n=5; read-out: ER stress [rel. ATF6 activity]
In short: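 ER stress was induced by 100 ng/mL tunicamycin added 4 h after compound (0.1% DMSO) to HeLa ATF6 reporter cells. After 18 h more, Renilla luciferase signal was read and expressed relative to DMSO control, n=5 biological replicates.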

[7] = test system: NF-κB activity in HEK293 NF-κB reporter cells; experiment: NF-kB activity assay (GFP reporter, ionomycin/PMA); type: cell-based; settings: n=3
In short: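 Reporter readout: GFP-expressing cells normalized to confluence, imaged every 90 min across 24 h after ionomycin (100 ng/mL)/PMA (10 ng/mL) stimulation of HEK293 cells pre-treated 4 h with compound (0.1% DMSO); triplicate independent experiments.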

Gal4-VP16 = type: cell-based; settings: 1 µM; vs. DMSO ctrl; single replicates n=1-3
Description: Five hours after transfection, the cells were incubated with the NR3 CG compound candidates at the recommended concentrations by changing the medium to Opti-MEM supplemented with penicillin (100 µ/mL) and streptomycin (100 µg/mL) additionally containing 0.1% DMSO and the respective test compound or 0.1% DMSO alone as untreated control. Firefly (reporter) and renilla (control) luminescence were measured after 14–16 h incubation using the Dual-Glo® Luciferase Assay System (Promega, Fitchburg, Wisconsin, USA; #E2980) according to manufacturer’s protocol on a Tecan Spark® 10M multimode microplate reader (Tecan Group AG, Männedorf, Switzerland). To obtain relative light units (RLU) firefly luminescence was divided by renilla luminescence and multiplied by 1000. Fold activation was obtained by dividing the mean RLU of a test sample by the mean RLU of the DMSO (0.1%) control. Experiments were performed in singlets in at least three biologically independent repeats.
are labeled according to their mode of action (yellow - agonist, grey - antagonist, grey with label D - degrader) and grouped by their
NR3 subfamily main targets.
reporter activity at the indicated concentrations expressed as mean fold reporter gene activity (n=3).

[8] = HEK293T, 24 h, WST-8, normalized to 0.1% DMSO
[9] = HEK293T, 24 h, apoptotic cell count normalized to 0.1% DMSO

T8 sequence (P49841 whole entry, species assumed): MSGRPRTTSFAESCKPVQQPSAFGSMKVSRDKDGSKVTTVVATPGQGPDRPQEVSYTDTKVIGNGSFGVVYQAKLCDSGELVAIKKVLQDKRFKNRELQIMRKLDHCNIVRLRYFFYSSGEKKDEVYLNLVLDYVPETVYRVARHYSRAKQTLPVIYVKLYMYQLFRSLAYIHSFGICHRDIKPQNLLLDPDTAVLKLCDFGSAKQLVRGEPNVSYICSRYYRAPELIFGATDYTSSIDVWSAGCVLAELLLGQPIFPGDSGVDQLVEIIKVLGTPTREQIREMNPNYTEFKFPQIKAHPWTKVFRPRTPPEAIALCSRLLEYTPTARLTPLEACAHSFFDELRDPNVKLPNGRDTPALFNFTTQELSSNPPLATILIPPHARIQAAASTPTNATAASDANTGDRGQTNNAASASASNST
T5 sequence (P48730 whole entry, species assumed): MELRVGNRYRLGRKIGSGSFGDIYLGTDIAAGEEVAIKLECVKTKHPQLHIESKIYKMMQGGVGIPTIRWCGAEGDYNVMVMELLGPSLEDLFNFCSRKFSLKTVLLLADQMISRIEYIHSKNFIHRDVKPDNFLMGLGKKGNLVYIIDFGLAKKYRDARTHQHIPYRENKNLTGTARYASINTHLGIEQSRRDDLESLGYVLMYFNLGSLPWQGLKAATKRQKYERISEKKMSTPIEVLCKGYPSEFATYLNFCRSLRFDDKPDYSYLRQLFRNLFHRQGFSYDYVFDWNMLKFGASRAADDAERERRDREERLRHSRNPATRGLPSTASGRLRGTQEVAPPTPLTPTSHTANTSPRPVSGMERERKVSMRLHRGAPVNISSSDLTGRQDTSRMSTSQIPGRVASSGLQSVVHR
T3 sequence (P22607 23-806, species assumed): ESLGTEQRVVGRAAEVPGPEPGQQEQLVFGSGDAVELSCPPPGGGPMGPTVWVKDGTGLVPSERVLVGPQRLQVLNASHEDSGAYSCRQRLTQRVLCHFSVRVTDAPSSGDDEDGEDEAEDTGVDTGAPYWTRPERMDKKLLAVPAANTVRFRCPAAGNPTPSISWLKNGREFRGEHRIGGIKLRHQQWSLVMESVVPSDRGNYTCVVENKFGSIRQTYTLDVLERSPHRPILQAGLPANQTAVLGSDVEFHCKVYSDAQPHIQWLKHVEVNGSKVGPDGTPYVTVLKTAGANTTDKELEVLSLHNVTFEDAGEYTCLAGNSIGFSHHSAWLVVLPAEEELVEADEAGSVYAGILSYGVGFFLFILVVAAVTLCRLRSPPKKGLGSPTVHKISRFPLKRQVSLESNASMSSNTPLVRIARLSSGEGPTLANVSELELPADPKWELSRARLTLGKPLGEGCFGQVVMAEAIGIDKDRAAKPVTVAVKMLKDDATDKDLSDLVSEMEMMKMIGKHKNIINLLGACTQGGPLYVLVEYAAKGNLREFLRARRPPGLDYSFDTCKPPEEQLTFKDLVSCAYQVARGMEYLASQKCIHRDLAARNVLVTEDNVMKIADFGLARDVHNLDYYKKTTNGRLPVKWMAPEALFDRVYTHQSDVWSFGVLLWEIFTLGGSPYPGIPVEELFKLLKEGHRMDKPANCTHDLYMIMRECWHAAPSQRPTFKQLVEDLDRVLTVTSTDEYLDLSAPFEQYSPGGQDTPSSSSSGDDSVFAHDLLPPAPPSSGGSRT
T6 sequence (P00519 whole entry, species assumed): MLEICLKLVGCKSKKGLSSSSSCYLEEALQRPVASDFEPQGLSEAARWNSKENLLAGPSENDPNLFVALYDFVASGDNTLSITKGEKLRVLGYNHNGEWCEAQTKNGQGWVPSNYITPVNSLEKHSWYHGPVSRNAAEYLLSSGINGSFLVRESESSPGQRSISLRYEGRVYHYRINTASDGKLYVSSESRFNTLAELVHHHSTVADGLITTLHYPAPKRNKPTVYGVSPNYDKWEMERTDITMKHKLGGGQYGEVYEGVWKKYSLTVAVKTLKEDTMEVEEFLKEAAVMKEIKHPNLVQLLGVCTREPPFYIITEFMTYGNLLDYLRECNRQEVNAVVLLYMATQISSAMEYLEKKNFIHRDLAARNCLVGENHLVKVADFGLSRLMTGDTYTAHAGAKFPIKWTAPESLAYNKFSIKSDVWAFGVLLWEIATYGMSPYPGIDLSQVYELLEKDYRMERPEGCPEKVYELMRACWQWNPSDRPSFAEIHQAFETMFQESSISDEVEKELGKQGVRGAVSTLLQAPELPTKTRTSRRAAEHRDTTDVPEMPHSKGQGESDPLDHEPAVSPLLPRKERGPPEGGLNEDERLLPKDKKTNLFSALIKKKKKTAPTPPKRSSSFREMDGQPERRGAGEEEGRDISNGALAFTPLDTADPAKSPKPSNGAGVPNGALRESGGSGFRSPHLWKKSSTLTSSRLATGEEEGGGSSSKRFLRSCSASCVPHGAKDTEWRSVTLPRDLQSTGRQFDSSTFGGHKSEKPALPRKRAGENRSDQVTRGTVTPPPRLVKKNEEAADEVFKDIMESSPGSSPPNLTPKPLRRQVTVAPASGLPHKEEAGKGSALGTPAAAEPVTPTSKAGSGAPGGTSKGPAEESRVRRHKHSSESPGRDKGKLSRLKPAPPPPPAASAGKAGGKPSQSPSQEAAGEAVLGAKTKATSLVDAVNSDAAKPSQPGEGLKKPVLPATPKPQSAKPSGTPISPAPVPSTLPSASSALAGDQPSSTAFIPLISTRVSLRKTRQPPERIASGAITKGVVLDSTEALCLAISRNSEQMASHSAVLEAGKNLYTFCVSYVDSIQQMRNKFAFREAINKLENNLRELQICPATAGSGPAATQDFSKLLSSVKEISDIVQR
T2 sequence (P28482 whole entry, species assumed): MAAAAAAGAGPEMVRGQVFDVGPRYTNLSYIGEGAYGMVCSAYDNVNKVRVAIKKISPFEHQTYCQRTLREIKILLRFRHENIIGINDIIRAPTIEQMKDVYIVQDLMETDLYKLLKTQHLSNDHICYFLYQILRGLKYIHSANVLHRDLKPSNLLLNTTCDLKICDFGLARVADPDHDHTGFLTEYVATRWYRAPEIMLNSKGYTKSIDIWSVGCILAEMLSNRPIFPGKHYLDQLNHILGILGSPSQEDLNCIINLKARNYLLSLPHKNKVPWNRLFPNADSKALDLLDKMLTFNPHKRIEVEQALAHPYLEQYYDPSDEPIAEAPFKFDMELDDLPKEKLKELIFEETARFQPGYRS

Structure (SMILES) | Growth rate [GR] (HEK293T cells [1]) | ΔTm at 20 µM (BRPF1) [°C] | ΔTm at 20 µM (MAPK1) [°C] | ΔTm at 20 µM (FGFR3) [°C] | ΔTm at 20 µM (AURKA) [°C] | ΔTm at 20 µM (CSNK1D) [°C] | ΔTm at 20 µM (ABL1) [°C] | ΔTm at 20 µM (CDK2) [°C] | ΔTm at 20 µM (GSK3B) [°C] | ΔTm at 20 µM (TRIM24) [°C] | ΔTm at 20 µM (BRD4) [°C] | Necrosis induction [NI] (HEK293T cells [5]) | activity at 1 µM [6] [%] | Mean NFκB response ([7]; 1 µM, 1,5 h) | Mean NFκB response ([7]; 1 µM, 4,5 h) | Mean NFκB response ([7]; 1 µM, 7,5 h) | Mean NFκB response ([7]; 1 µM, 10,5 h) | Mean NFκB response ([7]; 1 µM, 13,5 h) | Mean NFκB response ([7]; 1 µM, 16,6 h) | Mean NFκB response ([7]; 1 µM, 19,5 h) | also measured
CCC(=O)O[C@]1(C(=O)SCF)[C@H](C)C[C@H]2[C@@H]3C[C@H](F)C4=CC(=O)C=C[C@]4(C)[C@@]3(F)[C@@H](O)C[C@@]21C [Fluticasone propionate] | 0.78 and 1.00 and 1.07 and 0.88 (2×) and 0.82 | -0.69 | -0.034 | 0.32 | 0.09 | -0.0152 | 0.19 | 0.15 | -0.55 | -0.08 | -0.24 |  |  |  |  |  |  |  |  |  | EC50 (NR3C1 (GR)): 1 nM; Reason for exclusion: number of annotated off-targets [2]: > 5 off-targets; Metabolic activity [MA] (HEK293T cells [3]; DMSO 0.1% = 1.00): 0.94 and 0.83 and 1.03 and 1.06 and 1.10 and 1.04; Apoptosis induction [AI] (HEK293T cells [4]; DMSO 0.1% = 1.00): 0.81 and 1.24
Oc1ccc(-c2c(-c3ccccc3)nn3c(C(F)(F)F)cc(C(F)(F)F)nc23)cc1 [PHTPP] | 0.97 and 0.45 and 1.07 and 1.62 and 1.13 and 0.53 and 1.06 and 0.18 and 2.38 and 3.71 | -1.38 | -0.2 | 1.15 | -0.53 | 0.39 | 2.06 | 0.46 | -0.0558 | -0.6 | -1.27 | 1.05 and 0.87 and 0.89 and 1.10 | 100 | 2680.27 GFP+-cells/confluence ∙ 1000 | 3558.89 GFP+-cells/confluence ∙ 1000 | 8794.33 GFP+-cells/confluence ∙ 1000 | 18394.67 GFP+-cells/confluence ∙ 1000 | 26267.00 GFP+-cells/confluence ∙ 1000 | 32070.00 GFP+-cells/confluence ∙ 1000 | 36033.33 GFP+-cells/confluence ∙ 1000 | Mean NFκB response ([7]; 1 µM, 22,5 h): 39210.00 GFP+-cells/confluence ∙ 1000; Mean NFκB response ([7]; 1 µM, 3 h): 2926.71 GFP+-cells/confluence ∙ 1000; Mean NFκB response ([7]; 1 µM, 6 h): 4822.41 GFP+-cells/confluence ∙ 1000; Mean NFκB response ([7]; 1 µM, 9 h): 14065.00 GFP+-cells/confluence ∙ 1000; Mean NFκB response ([7]; 1 µM, 12 h): 22714.33 GFP+-cells/confluence ∙ 1000; Mean NFκB response ([7]; 1 µM, 15 h): 29343.33 GFP+-cells/confluence ∙ 1000; Mean NFκB response ([7]; 1 µM, 18 h): 34043.33 GFP+-cells/confluence ∙ 1000; Mean NFκB response ([7]; 1 µM, 21 h): 37940.00 GFP+-cells/confluence ∙ 1000; Mean NFκB response ([7]; 1 µM, 24 h): 40376.67 GFP+-cells/confluence ∙ 1000; VP16 control [fold reporter gene activity] (Gal4-VP16): 0.97 fold reporter gene activity and 1.04 fold reporter gene activity and 1.08 fold reporter gene activity; Metabolic activity [MA] (HEK293T cells [3]; [8]): 1.07 and 1.08 and 1.01 and 1.13 and 1.04 (2×) and 0.95 and 1.05; Apoptosis induction [AI] (HEK293T cells [4]; [9]): 0.81 and 1.09 and 0.92 and 1.05 and 0.26 and 0.21
CC(=O)O[C@]1(C(C)=O)CC[C@H]2[C@@H]3CCC4=CC(=O)CCC4=C3[C@@H](c3ccc(N(C)C)cc3)C[C@@]21C [Ulipristal acetate] | 0.78 and 1.52 and 1.08 and 1.00 (2×) and 1.04 and 0.73 and 0.60 and 1.80 and 3.99 | -2.65 | -0.0546 | -0.057 | -1.14 | 0.22 | 0.29 | -0.32 | -0.83 | -1.79 | -2.72 | 1.05 and 1.11 and 0.95 and 0.92 | 102 | 2644.31 GFP+-cells/confluence ∙ 1000 | 3036.67 GFP+-cells/confluence ∙ 1000 | 6043.33 GFP+-cells/confluence ∙ 1000 | 16570.00 GFP+-cells/confluence ∙ 1000 | 25096.67 GFP+-cells/confluence ∙ 1000 | 31636.67 GFP+-cells/confluence ∙ 1000 | 36313.33 GFP+-cells/confluence ∙ 1000 | Mean NFκB response ([7]; 1 µM, 22,5 h): 39910.00 GFP+-cells/confluence ∙ 1000; Mean NFκB response ([7]; 1 µM, 3 h): 2710.00 GFP+-cells/confluence ∙ 1000; Mean NFκB response ([7]; 1 µM, 6 h): 3846.67 GFP+-cells/confluence ∙ 1000; Mean NFκB response ([7]; 1 µM, 9 h): 10723.33 GFP+-cells/confluence ∙ 1000; Mean NFκB response ([7]; 1 µM, 12 h): 21213.33 GFP+-cells/confluence ∙ 1000; Mean NFκB response ([7]; 1 µM, 15 h): 28280.00 GFP+-cells/confluence ∙ 1000; Mean NFκB response ([7]; 1 µM, 18 h): 34176.67 GFP+-cells/confluence ∙ 1000; Mean NFκB response ([7]; 1 µM, 21 h): 38276.67 GFP+-cells/confluence ∙ 1000; Mean NFκB response ([7]; 1 µM, 24 h): 41050.00 GFP+-cells/confluence ∙ 1000; VP16 control [fold reporter gene activity] (Gal4-VP16): 1.05 fold reporter gene activity and 1.09 fold reporter gene activity and 1.04 fold reporter gene activity; Metabolic activity [MA] (HEK293T cells [3]; [8]): 1.04 and 0.97 and 0.99 (2×) and 1.03 (2×) and 0.96 and 1.08; Apoptosis induction [AI] (HEK293T cells [4]; [9]): 0.98 (2×) and 0.83 and 1.37 and 1.27 and 0.92
